Measurements from BindingDB's records for doi:10.1074/jbc.M606873200 (Parke-Davis Pharmaceutical Research, 1997).

Key:
Assay in all cases: Kinase Inhibition Assay
[1] = target: Platelet-derived growth factor receptor beta (Homo sapiens, UniProt P09619)
Procedure: (§1) The kinase activity is the enzyme activity that catalyzes the transfer of the terminal phosphate from [gamma-32P] ATP to the poly (E: Y) substrate. Nonspecific activity was defined as radioactivity retained on the filters following incubation of samples without enzyme. Specific activity was determined as total activity minus nonspecific activity.

[2] = target: Platelet-derived growth factor receptor alpha/beta (Homo sapiens, UniProt P09619+P16234)
Procedure: as §1

[3] = target: Fibroblast growth factor receptor 1 (Homo sapiens, UniProt P11362)
Fibroblast growth factor receptor 1, sequence (P11362 whole entry): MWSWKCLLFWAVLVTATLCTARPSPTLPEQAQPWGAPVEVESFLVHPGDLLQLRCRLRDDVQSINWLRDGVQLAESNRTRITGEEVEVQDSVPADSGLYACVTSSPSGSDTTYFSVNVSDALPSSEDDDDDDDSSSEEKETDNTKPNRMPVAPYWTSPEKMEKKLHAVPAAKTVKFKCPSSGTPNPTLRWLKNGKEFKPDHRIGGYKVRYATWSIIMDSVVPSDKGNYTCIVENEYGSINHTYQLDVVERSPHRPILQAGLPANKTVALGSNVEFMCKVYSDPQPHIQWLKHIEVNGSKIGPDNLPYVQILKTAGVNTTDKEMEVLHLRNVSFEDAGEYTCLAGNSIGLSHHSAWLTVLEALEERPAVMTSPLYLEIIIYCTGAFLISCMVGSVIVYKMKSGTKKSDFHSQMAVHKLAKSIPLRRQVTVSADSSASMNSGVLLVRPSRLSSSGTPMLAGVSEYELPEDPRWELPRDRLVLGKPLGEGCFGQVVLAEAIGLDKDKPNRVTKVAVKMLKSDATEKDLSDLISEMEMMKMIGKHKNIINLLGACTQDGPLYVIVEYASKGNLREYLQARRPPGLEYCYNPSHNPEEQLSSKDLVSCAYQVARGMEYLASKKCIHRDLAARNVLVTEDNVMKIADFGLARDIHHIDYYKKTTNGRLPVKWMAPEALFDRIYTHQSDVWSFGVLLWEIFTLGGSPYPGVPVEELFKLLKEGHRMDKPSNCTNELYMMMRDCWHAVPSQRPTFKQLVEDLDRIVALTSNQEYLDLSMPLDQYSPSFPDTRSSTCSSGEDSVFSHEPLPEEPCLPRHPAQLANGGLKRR
Procedure: as §1

[4] = target: Proto-oncogene tyrosine-protein kinase Src (Homo sapiens, UniProt P12931)
Proto-oncogene tyrosine-protein kinase Src, sequence (P12931 2-536 limits assumed): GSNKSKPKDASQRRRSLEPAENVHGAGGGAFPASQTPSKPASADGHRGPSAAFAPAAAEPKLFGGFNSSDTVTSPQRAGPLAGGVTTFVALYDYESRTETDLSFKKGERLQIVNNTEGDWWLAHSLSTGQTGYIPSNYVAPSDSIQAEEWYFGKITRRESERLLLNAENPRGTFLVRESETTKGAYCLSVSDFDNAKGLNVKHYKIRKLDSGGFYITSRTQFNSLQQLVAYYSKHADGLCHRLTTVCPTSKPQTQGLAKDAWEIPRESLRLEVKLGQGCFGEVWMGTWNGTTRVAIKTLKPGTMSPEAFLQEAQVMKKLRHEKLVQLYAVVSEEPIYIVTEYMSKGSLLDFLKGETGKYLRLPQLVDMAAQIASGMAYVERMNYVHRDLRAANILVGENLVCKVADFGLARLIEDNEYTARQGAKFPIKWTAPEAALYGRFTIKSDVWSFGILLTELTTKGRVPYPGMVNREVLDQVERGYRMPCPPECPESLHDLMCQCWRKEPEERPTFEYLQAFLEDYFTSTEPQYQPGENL
Procedure: as §1

[5] = target: Mitogen-activated protein kinase 1/3 (Homo sapiens, UniProt P27361+P28482)
Mitogen-activated protein kinase 1/3, sequence (P28482 whole entry): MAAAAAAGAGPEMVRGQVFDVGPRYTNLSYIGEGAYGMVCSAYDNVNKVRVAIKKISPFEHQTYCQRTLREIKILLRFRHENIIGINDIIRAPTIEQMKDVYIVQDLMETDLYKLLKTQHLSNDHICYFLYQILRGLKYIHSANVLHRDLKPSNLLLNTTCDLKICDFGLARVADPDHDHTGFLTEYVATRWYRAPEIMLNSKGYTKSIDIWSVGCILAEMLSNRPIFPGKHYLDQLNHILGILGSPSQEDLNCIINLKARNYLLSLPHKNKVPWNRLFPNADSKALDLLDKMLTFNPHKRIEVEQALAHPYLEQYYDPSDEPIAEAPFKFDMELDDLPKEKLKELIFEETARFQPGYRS
Mitogen-activated protein kinase 1/3, sequence (P27361 whole entry): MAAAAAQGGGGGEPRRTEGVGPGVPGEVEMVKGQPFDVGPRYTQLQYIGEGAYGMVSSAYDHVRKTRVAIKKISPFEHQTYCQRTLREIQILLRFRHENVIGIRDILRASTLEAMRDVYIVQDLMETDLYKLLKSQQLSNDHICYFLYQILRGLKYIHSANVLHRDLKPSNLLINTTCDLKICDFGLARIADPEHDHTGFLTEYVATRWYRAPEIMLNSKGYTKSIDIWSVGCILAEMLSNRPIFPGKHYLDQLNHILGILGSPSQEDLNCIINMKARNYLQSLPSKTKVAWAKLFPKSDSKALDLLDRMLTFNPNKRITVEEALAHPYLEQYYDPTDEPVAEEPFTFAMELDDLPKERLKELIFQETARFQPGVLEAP
Procedure: as §1

[6] = target: Cyclin-dependent kinase 4 (Homo sapiens, UniProt P11802)
Cyclin-dependent kinase 4, sequence (P11802 whole entry): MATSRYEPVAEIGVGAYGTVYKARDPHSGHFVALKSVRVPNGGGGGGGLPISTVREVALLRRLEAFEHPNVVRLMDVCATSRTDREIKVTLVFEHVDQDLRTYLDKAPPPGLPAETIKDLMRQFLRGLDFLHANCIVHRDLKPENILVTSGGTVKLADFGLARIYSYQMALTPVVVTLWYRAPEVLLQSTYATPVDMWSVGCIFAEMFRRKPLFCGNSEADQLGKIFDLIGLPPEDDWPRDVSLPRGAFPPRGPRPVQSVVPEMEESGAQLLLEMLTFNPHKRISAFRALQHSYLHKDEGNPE
Procedure: as §1

Protein kinase C (PKC) = target: Protein kinase C (PKC)
Procedure: as §1

Platelet-derived growth factor receptor beta, sequence (P09619 whole entry): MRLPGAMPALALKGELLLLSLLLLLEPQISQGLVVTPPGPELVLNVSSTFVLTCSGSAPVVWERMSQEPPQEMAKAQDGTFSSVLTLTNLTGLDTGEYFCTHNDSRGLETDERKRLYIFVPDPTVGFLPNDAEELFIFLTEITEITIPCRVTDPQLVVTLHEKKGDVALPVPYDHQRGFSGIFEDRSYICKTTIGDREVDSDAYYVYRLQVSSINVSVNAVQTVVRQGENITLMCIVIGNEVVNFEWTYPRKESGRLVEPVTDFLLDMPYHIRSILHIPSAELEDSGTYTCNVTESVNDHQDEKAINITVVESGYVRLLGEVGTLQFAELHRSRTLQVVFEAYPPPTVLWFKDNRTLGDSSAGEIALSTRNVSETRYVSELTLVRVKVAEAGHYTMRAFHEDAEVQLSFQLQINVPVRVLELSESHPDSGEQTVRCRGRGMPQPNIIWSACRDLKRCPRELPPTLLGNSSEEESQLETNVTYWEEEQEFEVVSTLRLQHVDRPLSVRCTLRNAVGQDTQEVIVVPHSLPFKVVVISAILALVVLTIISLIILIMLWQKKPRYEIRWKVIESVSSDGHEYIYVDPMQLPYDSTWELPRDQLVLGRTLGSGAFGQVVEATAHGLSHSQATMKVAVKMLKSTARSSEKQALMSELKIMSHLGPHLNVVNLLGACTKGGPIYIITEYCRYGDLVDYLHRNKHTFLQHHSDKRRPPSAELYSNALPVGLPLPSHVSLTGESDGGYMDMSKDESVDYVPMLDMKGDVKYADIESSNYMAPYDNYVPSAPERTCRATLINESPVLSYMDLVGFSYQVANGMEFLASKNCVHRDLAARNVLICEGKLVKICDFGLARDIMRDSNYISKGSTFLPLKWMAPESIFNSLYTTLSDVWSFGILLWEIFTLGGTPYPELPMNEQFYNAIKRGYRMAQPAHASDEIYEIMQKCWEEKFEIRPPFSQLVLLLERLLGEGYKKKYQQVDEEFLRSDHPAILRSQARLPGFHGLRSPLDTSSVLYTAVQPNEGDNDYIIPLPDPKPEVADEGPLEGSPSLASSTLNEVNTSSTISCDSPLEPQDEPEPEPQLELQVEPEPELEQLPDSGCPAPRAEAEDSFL

Row | IC50 ([1]; pH 7.4, 25 °C) [µM] | IC50 [2] [µM] | IC50 [3] [nM] | IC50 [4] [µM] | IC50 [5] [µM] | IC50 [6] [µM] | IC50 [1] [µM] | IC50 (Protein kinase C (PKC)) [µM] | Compound
1 | > 50 | > 50 | 7760 | > 50 |  |  |  |  | CCc1cc(CC)cc(-c2cc3cnc(N)nc3nc2NC(=O)NC(C)(C)C)c1 [1-[2-amino-6-(3,5-diethylphenyl)pyrido[2,3-d]pyrimidin-7-yl]-3-tert-butylurea]
2 | 11.8 | 11.8 | 890 | 1.65 |  |  |  |  | CCN(CC)CCOc1ccc(C)c(-c2cc3cnc(N)nc3nc2NC(=O)NC(C)(C)C)c1C [1-(2-amino-6-{3-[2-(diethylamino)ethoxy]-2,6-dimethylphenyl}pyrido[2,3-d]pyrimidin-7-yl)-3-tert-butylurea]
3 | 1.25 | 1.25 |  |  | 7.1 | > 50 |  |  | CC(C)(C)NC(=O)Nc1nc2nc(N)ncc2cc1-c1c(Cl)cccc1Cl
4 | 8.97 | 8.97 | 1100 | 1.35 |  |  |  |  | CC(C)(C)NC(=O)Nc1nc2nc(N)ncc2cc1-c1cc(F)cc(F)c1 [1-[2-amino-6-(3,5-difluorophenyl)pyrido[2,3-d]pyrimidin-7-yl]-3-tert-butylurea]
5 | 1.05 | 1.05 |  |  |  |  |  |  | Cc1ccccc1-c1cc2cnc(N)nc2nc1NC(=O)NC(C)(C)C [1-[2-amino-6-(2-methylphenyl)pyrido[2,3-d]pyrimidin-7-yl]-3-tert-butylurea]
6 | > 50 | > 50 | > 50000 | > 50 |  |  |  |  | CC(C)(C)NC(=O)Nc1nc2nc(N)ncc2cc1-c1cc(C(F)(F)F)cc(C(F)(F)F)c1 [1-{2-amino-6-[3,5-bis(trifluoromethyl)phenyl]pyrido[2,3-d]pyrimidin-7-yl}-3-tert-butylurea]
7 |  | > 50 | 20200 | > 50 |  |  | > 50 |  | COc1ccc(-c2cc3cnc(N)nc3nc2NC(=O)NC(C)(C)C)cc1OC [1-[2-amino-6-(3,4-dimethoxyphenyl)pyrido[2,3-d]pyrimidin-7-yl]-3-tert-butylurea]
8 |  |  | 60 |  |  | > 40 |  |  | COc1cc(OC)cc(-c2cc3cnc(N)nc3nc2NC(=O)NC(C)(C)C)c1 [6-arylpyrido[2,3-d]pyrimidine deriv. 25]
9 | 4.48 | 4.48 |  | 10.4 |  |  |  |  | COc1ccccc1-c1cc2cnc(N)nc2nc1NC(=O)NC(C)(C)C [1-[2-amino-6-(2-methoxyphenyl)pyrido[2,3-d]pyrimidin-7-yl]-3-tert-butylurea]
10 | 4.48 | 4.48 | 11200 | 10.4 |  |  |  |  | CCc1ccccc1-c1cc2cnc(N)nc2nc1NC(=O)NC(C)(C)C [1-[2-amino-6-(2-ethylphenyl)pyrido[2,3-d]pyrimidin-7-yl]-3-tert-butylurea]
11 | 13.2 | 13.2 | 8000 | 19.3 |  |  |  |  | CC(C)(C)NC(=O)Nc1nc2nc(N)ncc2cc1-c1ccccc1 [1-{2-amino-6-phenylpyrido[2,3-d]pyrimidin-7-yl}-3-tert-butylurea]
12 | 6.31 | 6.31 | 1670 | 17.5 |  |  |  |  | Cc1ccc(-c2cc3cnc(N)nc3nc2NC(=O)NC(C)(C)C)cc1 [1-[2-amino-6-(4-methylphenyl)pyrido[2,3-d]pyrimidin-7-yl]-3-tert-butylurea]
13 | > 50 | > 50 | 1620 | > 50 |  |  |  |  | Cc1c(C)c(C)c(-c2cc3cnc(N)nc3nc2NC(=O)NC(C)(C)C)c(C)c1C [1-[2-amino-6-(2,3,4,5,6-pentamethylphenyl)pyrido[2,3-d]pyrimidin-7-yl]-3-tert-butylurea]
14 | 1.47 | 1.47 | 270 | 0.36 |  |  |  |  | Cc1cc(C)c(-c2cc3cnc(N)nc3nc2NC(=O)NC(C)(C)C)c(C)c1 [1-[2-amino-6-(2,4,6-trimethylphenyl)pyrido[2,3-d]pyrimidin-7-yl]-3-tert-butylurea]
15 | 6.05 | 6.05 |  |  |  |  |  |  | Cc1cccc(-c2cc3cnc(N)nc3nc2NC(=O)NC(C)(C)C)c1C [1-[2-amino-6-(2,3-dimethylphenyl)pyrido[2,3-d]pyrimidin-7-yl]-3-tert-butylurea]
16 |  | > 50 | 16000 | > 50 |  |  | > 50 |  | CN(C)c1cc(-c2cc3cnc(N)nc3nc2NC(=O)NC(C)(C)C)cc(N(C)C)c1
17 | 1.67 | 1.67 | 110 | 0.8 |  |  |  |  | CC(C)(C)NC(=O)Nc1nc2nc(N)ncc2cc1-c1c(F)cccc1F [1-[2-amino-6-(2,6-difluorophenyl)pyrido[2,3-d]pyrimidin-7-yl]-3-tert-butylurea]
18 | 0.62 | 0.62 |  | 0.21 |  |  |  |  | CC(C)(C)NC(=O)Nc1nc2nc(N)ncc2cc1-c1c(Cl)cccc1Br [1-[2-amino-6-(2-bromo-6-chlorophenyl)pyrido[2,3-d]pyrimidin-7-yl]-3-tert-butylurea]
19 |  | > 50 | 1650 | > 50 |  |  | > 50 |  | CCOc1cc(OCC)cc(-c2cc3cnc(N)nc3nc2NC(=O)NC(C)(C)C)c1 [1-[2-amino-6-(3,5-diethoxyphenyl)pyrido[2,3-d]pyrimidin-7-yl]-3-tert-butylurea]
20 |  | 22.9 | 360 |  |  |  | 22.9 |  | COc1cccc(-c2cc3cnc(N)nc3nc2NC(=O)NC(C)(C)C)c1 [1-[2-amino-6-(3-methoxyphenyl)pyrido[2,3-d]pyrimidin-7-yl]-3-tert-butylurea]
21 | 2.26 | 2.26 | 160 | 4.41 |  |  |  |  | CC(C)(C)NC(=O)Nc1nc2nc(N)ncc2cc1-c1cccc(Cl)c1Cl [1-[2-amino-6-(2,3-dichlorophenyl)pyrido[2,3-d]pyrimidin-7-yl]-3-tert-butylurea]
22 |  | 23 | 670 | > 50 |  |  | 23 |  | CCOc1cccc(-c2cc3cnc(N)nc3nc2NC(=O)NC(C)(C)C)c1 [1-[2-amino-6-(3-ethoxyphenyl)pyrido[2,3-d]pyrimidin-7-yl]-3-tert-butylurea]
23 | > 50 | > 50 |  |  | > 50 | > 40 |  | > 50 | Cc1cc(C)c(C)c(-c2cc3cnc(N)nc3nc2NC(=O)NC(C)(C)C)c1C [1-[2-amino-6-(2,3,5,6-tetramethylphenyl)pyrido[2,3-d]pyrimidin-7-yl]-3-tert-butylurea]
24 | 2.96 | 2.96 | 110 |  |  |  |  |  | CC(C)(C)NC(=O)Nc1nc2nc(N)ncc2cc1-c1c(Cl)ccc(Cl)c1Cl [1-[2-amino-6-(2,3,6-trichlorophenyl)pyrido[2,3-d]pyrimidin-7-yl]-3-tert-butylurea]
25 | 52.9 | 52.9 | 1130 | > 50 |  |  |  |  | Cc1cc(C)cc(-c2cc3cnc(N)nc3nc2NC(=O)NC(C)(C)C)c1 [1-[2-amino-6-(3,5-dimethylphenyl)pyrido[2,3-d]pyrimidin-7-yl]-3-tert-butylurea]
26 | 1.42 | 1.42 | 290 | 0.21 |  |  |  |  | CC(C)(C)NC(=O)Nc1nc2nc(N)ncc2cc1-c1c(Br)cccc1Br [1-[2-Amino-6-(2,6-dibromo-phenyl)-pyrido-[2,3-d]pyrimidin-7-yl]-3-tert-butyl-urea]
27 |  | 2.89 | 3970 | > 50 |  |  | 2.89 |  | COc1ccc(-c2cc3cnc(N)nc3nc2NC(=O)NC(C)(C)C)cc1 [1-[2-amino-6-(4-methoxyphenyl)pyrido[2,3-d]pyrimidin-7-yl]-3-tert-butylurea]
